The results in this text go back to US5373040A, “Amorphous solid modification of 2,2',2"-nitrilo[triethyl-tris-(3,3',5,5'-tetra-tert-butyl-1,1'-biphenyl- 2,2'-diyl)phosphite]” (Ciba-Geigy Corporation, priority 1993, dated 1994).

A short description of data set [1]: Stabilization of polyol: discoloration or scorch of foam. The note with it: 1000 ppm plus BHT 2000 ppm and NAUGARD 445 2000 ppm; versus control stabilizer package. As for the experimental part: A premix of 10 g of water, 0.25 g of triethylenetetramine, 2 g of L-5740 (silicone surfactant, Union Carbide) and 20 g of ANTIBLAZE® AB-100 (chlorinated aromatic flame retardant, Albright & Wilson) is added to 200 g of 3000 molecular weight polyether polyol containing the stabilizer package listed below*. The mixture is stirred for five minutes with a high speed Lightning Mixer. Then 0.4 g of stannous octoate is added and the mixture is stirred for 5 seconds. Finally, 125 g of toluene diisocyanate ([…]) is added. The mixture is stirred for 7 seconds at high speed mixing and is then poured into a 10"×10"×5" (25.4 cm×25.4 cm×12.7 cm) cardboard box. The foam is allowed to rise completely. After standing 5 minutes, the box is removed and the sample cured in a microwave over for five minutes at 50% power. The foam is then immediately air over cured at 125° C. for three minutes. The foams are then cut in half for visual assessment of discoloration or scorch.
Control is 2,6-di-tert-butyl-4-methylphenol (BHT) 2000 ppm; and NAUGARD® 445 (diphenylamine antioxidant, Uniroyal) 2000 ppm.
Instant package is the above plus 1000 ppm of the compound of Example 1.

A short description of data set [2]: Stabilization of polycarbonate: yellowness index. Particulars: 0.08 weight percent plus 0.3 weight percent TINUVIN 329; versus UV absorber alone. As for the experimental part: Additive free bisphenol A polycarbonate (LEXAN® 141-111N, General Electric) is dried and blended with 0.3 weight percent of a benzotriazole UV absorber TINUVIN® 329, Ciba-Geigy) and 0.08 weight percent of instant compound of Example 1. The mixture is extruded and pelletized at 550° F. (288° C.) on a 1" (2.54 cm) single screw extruder. Injection molded plaques (2"×2"×125 mil; 5.08 cm×5.08 cm×3.175 mm) are prepared in a BOY 30M injection molder at 560° F. (293° C.) with a mold temperature of 150° C. The resulting plaques are measured for yellowness index (YI) using ASTM D 1925-70.

Data set [3] can be described thus: Stabilization of ABS: yellowness index. Particulars: 0.25 g per 100 g of ABS; air oven at 180° C. for 45 minutes; versus unstabilized ABS resin. The procedure:
A solution of 0.25 g of the instant compound of Example 1 in 40 ml of hexane/methanol is added to a rapidly stirred suspension of 100 g of ABS (acrylonitrile/butadiene/styrene terpolymer) in 600 g of water. The suspension is filtered and dried under vacuum at 40° C. for 40 hours. To the dried powder is added 2% by weight of titanium dioxide and 1% by weight of N,N'-ethylenebisstearamide on a two roll mill at 180° C. over four minutes. Compression molded plaques (0.8 mm) are prepared at 175° C. and placed in an air oven at 180° C. for 45 minutes. The color of said plaques are determined as yellowness index values using ASTM D1925-70.

Data set [4] can be described thus: Apparent bulk density (ASTM D-1895). Type of data set: physicochemical. The procedure: The apparent bulk density of the solids is measured according to the method of ASTM D-1895 (79). A higher apparent bulk density allows for a greater mass per unit volume which affords advantages in packaging of the solid product, such as lower costs for the packaging material, less storage space is required, etc.

The nature of data set [5]: Solubility in LLDPE film by diffusion-in, X-ray fluorescence. It counts as physicochemical. The procedure:
Experiments are carried out to determine the solubility of the instant compound into linear low density polyethylene (LLDPE) films at 20° C., 40° C. and 60° C. by diffusion-in of a relatively homogeneous particle size (<70 microns) of the test sample suspended in silicon oil.
Each sample is carefully ground with a mortar and pestle and the particle size below 70 microns is separated by sieving with a 200 mesh screen. The powder is then suspended in silicon oil (polydimethylsiloxane, L-45, Union Carbide Chemicals) at a concentration of approximately 38% (wt/wt). A few drops of this suspension is placed on a 10 mil (0.254 mm) thick, 2"×2" (5.08 cm×5.08 cm) compression molded film and a second film of the same dimension is placed on top. The films are gently pressed together so that the suspension forms a thin liquid layer between the polymer films. Excess suspension is removed and the procedure is repeated till a stack of eight films (six films for evaluation) are prepared. The stack is then placed between two 2.5"×2.5" (6.35 cm×6.35 cm) ceramic tiles and wrapped in aluminum foil and held together with a G-clamp. Each stack is aged at 20° C., 40° C. and 60° C. under a nitrogen atmosphere. At specified intervals, a single film is removed from the stack and the excess suspension is washed from the film with hexane. The film is then analyzed by X-ray fluorescence for total phosphorus content. LLDPE containing 0, 1000 ppm and 2000 ppm of the test compound are used as standard controls for this X-ray fluorescence method.

Data set [6] in a line: Stabilization of poly(ethylene terephthalate): intrinsic viscosity. The note with it: 0.5% by weight, five extrusion passes; versus PET containing no stabilizer. The procedure:
Poly(ethylene terephthalate), PET (KODAPAR® 7352, Eastman Chemical) is tumble blended with 0.5% by weight of the compound of instant Example 1. The polymer is then extruded and pelletized at 500° F. (260°C.) in a MPM 1" (2.54 cm) single screw extruder. The pellets are collected, redried and reextruded 5 times. Pellets are collected from each extrusion pass and the polymer intrinsic viscosity measured.

The nature of data set [7]: Process stabilization of polypropylene at 525° F.: melt flow rate (ASTM D1238). Particulars: in the presence of a representative phenolic antioxidant; versus prior art compound of U.S. Pat. No. 4,318,845. The procedure:
The test additives are incorporated into the polypropylene by dry blending or, when the additive is a liquid, using a minimum amount of methylene chloride solvent. The solvent is then removed by evaporation under reduced pressure.
After each of the first, third and fifth extrusions, the melt flow rate (in grams/10 minutes) is determined by ASTM method D1238 on the pellets obtained from the extruder.

As for `CC(C)(C)c1cc(C(C)(C)C)c2op(OCCN(CCOp3oc4c(C(C)(C)C)cc(C(C)(C)C)cc4c4cc(C(C)(C)C)cc(C(C)(C)C)c4o3)CCOp3oc4c(C(C)(C)C)cc(C(C)(C)C)cc4c4cc(C(C)(C)C)cc(C(C)(C)C)c4o3)oc3c(C(C)(C)C)cc(C(C)(C)C)cc3c2c1` [Example 1, 2,2',2"-nitrilo[triethyl-tris-(3,3',5,5'-tetra-tert-butyl-1,1'-biphenyl-2,2'-diyl)phosphite]], the “discoloration of foam (visual inspection)” value in data set [1] was “less discolored”. The scorch protection entry in data set [1] is given as “better scorch protection”. Also, the “yellowness index (YI)” value in data set [2] was “lower YI values”. The yellowness index result in data set [3] is “lower yellowness index values (less discoloration)”. Besides, the “Bulk Density” value in data set [4] is on record as 0.49 g/mL. Moreover, the “Solubility of Compound in LLDPE at 20° C.” value in data set [5] (interval 15 (time unit not given)) was 7200 ppm; in data set [5] (interval 28 (time unit not given)), 5100 ppm; in data set [5] (interval 35 (time unit not given)), 3800 ppm; in data set [5] (interval 44 (time unit not given)) it was 4700 ppm; in data set [5] (third section, interval 6 (time unit not given)) it was 3400 ppm; in data set [5] (third section, interval 14 (time unit not given)) it was 4000 ppm. Also, the “Solubility of Compound in LLDPE at 20° C.” value is on record as 4500 ppm in data set [5] (third section, interval 22 (time unit not given)); 3800 ppm in data set [5] (third section, interval 28 (time unit not given)); 4100 ppm in data set [5] (third section, interval 37 (time unit not given)). Besides, the “Solubility of Compound in LLDPE at 40° C.” value in data set [5] (interval 10 (time unit not given)) stood at 2500 ppm; in data set [5] (interval 17 (time unit not given)) it was 2100 ppm; in data set [5] (interval 25 (time unit not given)), 2400 ppm; in data set [5] (interval 34 (time unit not given)) it was 1700 ppm; in data set [5] (interval 40 (time unit not given)), 1900 ppm; in data set [5] (interval 47 (time unit not given)) it was 2200 ppm. For the same compound, in data set [5] (versus prior art compound of Example 4 of U.S. Pat. No. 4,318,845), the “solubility in LLDPE” value is listed as “far more soluble”. For the same compound, the “retention of original intrinsic viscosity” value in data set [6] is listed as “higher retention of original intrinsic viscosity”. The “stabilizing polypropylene against thermal and oxidative degradation (change in melt flow rate)” value in data set [7] was “equal or more effective”.
